Patent US20210380988A1, “Reducing Prominin2-Mediated Resistance to Ferroptotic Cell Death” (University of Massachusetts, priority 2020, published 2021)

Experiments:
Hs578t cells = experiment: Survival of adherent cells in response to GPX4 inhibition (crystal violet); assay type: cell-based; conditions: Hs578t
Description: (§1) Cell-based assays: Assays to assess survival in response to matrix detachment were performed as described (Brown C W, 2017). To assay survival in response to GPX4 inhibition, adherent cells in 96 well plates (1.0×10^4 per well) were treated with either DMSO, RSL3, ML210, FIN56 or erastin for 24 hrs with and without ferrostatin-1 or DFO. Subsequently, cells were fixed in 4% paraformaldehyde (Boston BioProducts), stained with crystal violet (Sigma) and read on a microplate reader (Beckman Colter) at absorbance 595. Absorbances were normalized to DMSO.

MCF10A cells = experiment: as above; assay type: cell-based
Description: as §1

SW620 = experiment: Viability with RSL3 and KRIBB11 co-treatment; assay type: cell-based; conditions: SW620, 10 uM KRIBB11, 24 hours
Description: as §1

HCC1806 = experiment: Viability with RSL3 and KRIBB11 co-treatment; assay type: cell-based; conditions: HCC1806, 10 uM KRIBB11, 24 hours
Description: as §1

SW480 = experiment: Viability with RSL3 and KRIBB11 co-treatment; assay type: cell-based; conditions: SW480, 10 uM KRIBB11, 24 hours
Description: as §1

HSF1 = HSF1 mRNA, protein, S326 phosphorylation and nuclear localization in MCF10A cells; assay type: cell-based; conditions: 10 uM KRIBB11 with 4HNE or RSL3, 60 minutes
prominin2 = experiment: PROM2 mRNA (qPCR) and prominin2 protein (immunoblot) expression in MCF10A cells; assay type: cell-based; conditions: MCF10A, 10 uM KRIBB11, 25 uM 4HNE or 5 uM RSL3, 60 minutes
Description: Biochemical experiments: Immunoblotting and qPCR were performed as described (Brown C W, 2017). Briefly, for immunoblotting, cell lysates were extracted using radioimmunoprecipitation assay (RIPA) buffer (Boston Bioproducts). Extracts were separated by SDS PAGE using the specified antibodies. Immunoprecipitation was performed on lysates isolated using NP-40 buffer (Boston Bioproducts). Lysates were pre-cleared prior to overnight incubation with the primary antibody and protein A agarose beads (Sigma-Aldrich). Immune complexes were separated by SDS PAGE and immunoblotted as described in figure legends. RNA was isolated from cells (BioBasic) and cDNA was generated using the All in One cDNA Synthesis SuperMix (BioScript Solutions). qPCR was performed using a SYBR green master mix (BioScript Solutions). Sequences for primers used were as follows: […]

MDA-MB-231 cells = experiment: Survival of adherent cells in response to GPX4 inhibition (crystal violet); assay type: cell-based; conditions: MDA-MB-231, prominin2 expression construct vs vector control
Description: as §1

cancer cell lines = conditions: across hundreds of cancer cells lines; cited from earlier work

Structure (SMILES)	ability to resist RSL3-induced ferroptosis when co-treated with RSL3 and KRIBB11 (Hs578t cells; 10 uM KRIBB11, 24 hours)	death induced by RSL3, FIN56, erastin, or imidazole ketone erastin on chemical inhibition of HSF1 (MCF10A cells; otherwise resistant cells, cell line not named at b53, FIG. 16E: MCF10A)	ability to resist RSL3-induced ferroptosis when co-treated with RSL3 and KRIBB11 (SW620)	ability to resist RSL3-induced ferroptosis when co-treated with RSL3 and KRIBB11 (HCC1806)	ability to resist RSL3-induced ferroptosis when co-treated with RSL3 and KRIBB11 (SW480)	expression, phosphorylation and nuclear localization of HSF1 (HSF1)	upregulation of PROM2 mRNA and prominin2 protein expression in response to either 4HNE or RSL3 (prominin2)	cell death in response to compound with exogenous prominin2 expression (MDA-MB-231 cells)	sensitivity to compound in prominin2 knock-down cells compared to control cells (Hs578t cells; prominin2 siRNA 48 hours, compound 24 hrs)	sensitivity to compound in prominin2 knock-down cells compared to control cells (MCF10A cells; MCF10A, prominin2 siRNA 48 hours, compound 24 hrs)	correlation of high prominin2 expression with response to compound (cancer cell lines)
CNc1ccc([N+](=O)[O-])c(Nc2ccc3[nH]ncc3c2)n1 [KRIBB11, N(2)-(1H-indazole-5-yl)-N(6)-methyl-3-nitropyridine-2,6-diamine]	significantly reduced	sensitized otherwise resistant cells to death	significantly reduced	significantly reduced	significantly reduced	neither the expression, phosphorylation nor nuclear localization of HSF1 was affected	prevented the upregulation	–	–	–	–
Cc1onc(C(=O)N2CCN(C(c3ccc(Cl)cc3)c3ccc(Cl)cc3)CC2)c1[N+](=O)[O-] [ML210]	–	–	–	–	–	–	–	sufficient to inhibit cell death	significant increase in sensitivity	significant increase in sensitivity	significantly correlated with resistance
